Columns and labels:
[1] = tested on: chemically regulatable chimeric genes coding for GUS, AHAS or BT; test: Primer extension assay for mRNA of chemically regulatable chimeric genes; format: in vivo; conditions: callus or regenerated plant material from transgenic plants; level proportional to amount of regulator applied
Experimental: 50 g of total RNA is lyophilized in a 500 l Eppendorf tube. The RNA is resuspended in 30 l of radiolabeled probe solution and heated to 70′ C. for 10 minutes. The tube is slowly cooled to 37° C. and allowed to incubate overnight. Without removing the tube from the 37° C. water bath, 2 l of 10×reverse-transcriptase buffer (500 mM Tris-HCl, pH 7.5, 400 mM KCl, 30 mM MgCl2), 1 l 5 mg/ml bovine serum albumin, 5 l 100 mM dithiothreitol, 5 l 10×dNTPs (10 mM of each dNTP in H2O), 3 l H 20, 2 l RNasin (80 units), and 2 l reverse transcriptase (400 units) are added and the reaction is incubated at 37° C. for 30 minutes. To stop the reaction, 5 l of 3 M sodium acetate, pH 5, and 150 l absolute ethanol are added. The tube is left at −20° C. for 30 minutes, the precipitate is collected by centrifugation, washed with 80% ethanol and allowed to air-dry. The precipitate is resuspended in 10-20 l of loading dye (90% formamide, 0.05% bromophenol blue, 0.05% xylene cyanol, 1 mM EDTA) and the extension products are separated on a 6% sequencing gel (Maniatis, T. et al., supra). Extension products are visualized by autoradiography.
Plant materials induced and harvested as in Examples 140 to 142 are assayed for the induction of mRNA species by the isolation of RNA and the primer extension assay as described in Example 6.
The level of mRNA is proportional to the amount of regulator applied.

[2] = tested on: cucumber chitinase protein; test: Cucumber chitinase ELISA in transgenic plants carrying cucumber chitinase genomic constructs after leaf treatment; format: in vivo, tobacco; parameters: key: —: Indicates that sample has no detectable level of chitinase protein
Experimental: Once the transgenic plants are transferred to soil, they are grown 4-5 weeks before treatment. The following solutions are applied to the leaves with sterile paintbrushes:
3. Methyl benzo-1,2,3-thiadiazole-7-carboxylate. The solution is made by resuspending a wettable powder containing a formulation of the chemical with 25% active ingredient in sterile water at a concentration of 1 mg/ml.
4. Methyl 2,6-dichloroisonicotinate, prepared as above. Alternatively, 30 ul of 10 mM sodium phosphate buffer, pH 7.0, or 30 ul of the same buffer containing tobacco mosaic virus (50-100 pfu/30 ul) is applied to the leaves which have been sprinkled with carborundum. The buffers are distributed over the whole treated leaf by gentle rubbing.
The plants are allowed to continue to grow for seven days. The treated leaves are then harvested, frozen in liquid nitrogen and stored at −80° C. until they are assayed.
Frozen leaf tissue is ground in a mortar with a pestle in the presence of liquid nitrogen to produce a fine powder. 0.33 g of each tissue sample is added to 1 ml extraction buffer (50 mM Tris-HCl, pH 8.5, 0.2M 2-mercaptoethanol, 2 mM phenyl methyl sulfonyl fluoride, 2 mM benzamidine, 10 mM epsilon-aminocaproic acid, 1 mM leueptine) and the sample homogenized for one minute with an Ultra Turrax Mixer (shaft #S25N-8G, Tekmar Co. Cincinnati, Ohio). The samples are then centrifuged at 48,000×g for fifteen minutes at 4° C. and the supernatant removed from the pelleted material. The extracts are diluted at least 1:50 in ELISA diluent (101 mM sodium phosphate, pH 7.4, 140 mM sodium chloride, 0.05% Tween 20, 0.02% sodium azide, 1% BSA).
A microtiter plate is coated with monoclonal antibody specific to the cucumber chitinase protein at 2 ug/ml in borate-buffered saline (100 mM boric acid, 25mM sodium borate, 75 mM sodium chloride; pH 8.5) using 50 ul per well. The plate is incubated overnight at 4° C. The plate is washed with ELISA wash buffer (10 mM Tris-HCl, pH 8.0, 0.05% Tween 20, 3 mM sodium azide) and BSA blocking solution (10 mM sodium phosphate, pH 7.4, 140 mM sodium chloride, 0.02% sodium azide, 1% BSA) is added to completely cover each well. Incubation is for at least 30 minutes at room temperature.
The microtiter plate is washed with ELISA wash buffer and 50 ul of extract is added to the appropriate well. 50 ul of each of 10 chitinase protein standards (ranging from 0 ng/ml to 31.64 ng/ml) was also added to the appropriate well and the plate is incubated for two hours at 4° C. The plate is washed with ELISA wash buffer and 50 ul of rabbit polyclonal antibody to the cucumber chitainase protein (diluted 1:15,000 in ELISA diluent) is added to the well and incubated for one hour at 37° C. After washing with ELISA wash buffer, 50 ul of goat anti-rabbit conjugated to alkaline phosphatase (1:500 in ELISA diluent) is added to each well and incubated at 37° C. for one hour. The plate is then washed and 50 ul alkaline phosphatase substrate solution (0.6 mg/ml p-nitrophenyl phosphate in 0.5 mM magnesium chloride and 10% diethanolamine) is added to each well. After a 30 minute incubation at room temperature, 50 ul of 3N sodium hydroxide is added to each well to stop the reaction.
The plate is read at 405 nm and 492 nm on an HP Genenchem ELISA plate reader. The output values are expressed as A(405 nm)-A(492 nm)−0.092 to allow for correction of p-nitrophenyl phosphate as substrate. The chitinase standards for each plate are graphed logarithmically. The amount of chitinase protein in each sample is determined from the standard curve. If the amount of chitinase in any sample is close to the upper limit of the curve, the sample is assayed again at a greater dilution. Final results are expressed in the table below in ug chitinase per gram tissue.

## O=C(O)c1ccccc1O [Salicylic acid, salicylic acid]
[1]
  level of mRNA of the chimeric gene (GUS, AHAS or BT primer), primer extension assay: elevated levels of mRNA
[2]; line Bam-1 (2001/BamChit), leaves harvested after seven days, water 0.066, buffer —
  ELISA ASSAY RESULTS (ug chitinase/g tissue): —
[2]; line Bam-3 (2001/BamChit), seven days, water —, buffer —
  ELISA ASSAY RESULTS (ug chitinase/g tissue): —
[2]; line Bam-4 (2001/BamChit), seven days, water —, buffer —
  ELISA ASSAY RESULTS (ug chitinase/g tissue): —
[2]; line Bam-8 (2001/BamChit), seven days, water —, buffer —
  ELISA ASSAY RESULTS (ug chitinase/g tissue): —
[2]; line Bam-9 (2001/BamChit), seven days, water —, buffer —
  ELISA ASSAY RESULTS (ug chitinase/g tissue): 0.522 ug chitinase/g tissue
[2]; line Bam-10 (2001/BamChit), seven days, water 0.059, buffer 0.084
  ELISA ASSAY RESULTS (ug chitinase/g tissue): 0.093 ug chitinase/g tissue
[2]; line Bam-12 (2001/BamChit), seven days, water —, buffer —
  ELISA ASSAY RESULTS (ug chitinase/g tissue): —
[2]; line Bam-14 (2001/BamChit), seven days, water —, buffer —
  ELISA ASSAY RESULTS (ug chitinase/g tissue): —
[2]; line Bam-15 (2001/BamChit), seven days, water —, buffer —
  ELISA ASSAY RESULTS (ug chitinase/g tissue): —
[2]; line Bam-16 (2001/BamChit), seven days, water —, buffer —
  ELISA ASSAY RESULTS (ug chitinase/g tissue): 0.690 ug chitinase/g tissue
[2]; line Bam-17 (2001/BamChit), seven days, water —, buffer —
  ELISA ASSAY RESULTS (ug chitinase/g tissue): —
[2]; line Bam-19 (2001/BamChit), seven days, water —, buffer —
  ELISA ASSAY RESULTS (ug chitinase/g tissue): 0.760 ug chitinase/g tissue
[2]; line Bam-21 (2001/BamChit), seven days, water —, buffer —
  ELISA ASSAY RESULTS (ug chitinase/g tissue): —
[2]; line Bam-23 (2001/BamChit), seven days, water —, buffer —
  ELISA ASSAY RESULTS (ug chitinase/g tissue): —
[2]; line Bam-24 (2001/BamChit), seven days, water —, buffer —
  ELISA ASSAY RESULTS (ug chitinase/g tissue): —
[2]; line Bam-25 (2001/BamChit), seven days, water —, buffer —
  ELISA ASSAY RESULTS (ug chitinase/g tissue): 0.522 ug chitinase/g tissue
[2]; line Bam-26 (2001/BamChit), seven days, water —, buffer —
  ELISA ASSAY RESULTS (ug chitinase/g tissue): —
[2]; line Nco-2 (2001/NcoChit), seven days, water —, buffer —
  ELISA ASSAY RESULTS (ug chitinase/g tissue): —
[2]; line Nco-3 (2001/NcoChit), seven days, water —, buffer —
  ELISA ASSAY RESULTS (ug chitinase/g tissue): —
[2]; line Nco-5 (2001/NcoChit), seven days, water —, buffer —
  ELISA ASSAY RESULTS (ug chitinase/g tissue): —
[2]; line Nco-8 (2001/NcoChit), seven days, water —, buffer —
  ELISA ASSAY RESULTS (ug chitinase/g tissue): —
[2]; line Nco-9 (2001/NcoChit), seven days, water —, buffer —
  ELISA ASSAY RESULTS (ug chitinase/g tissue): —
[2]; line Nco-10 (2001/NcoChit), seven days, water —, buffer —
  ELISA ASSAY RESULTS (ug chitinase/g tissue): —
[2]; line Nco-11 (2001/NcoChit), seven days, water —, buffer —
  ELISA ASSAY RESULTS (ug chitinase/g tissue): —
[2]; line Nco-15 (2001/NcoChit), seven days, water —, buffer —
  ELISA ASSAY RESULTS (ug chitinase/g tissue): —
[2]; line Nco-16 (2001/NcoChit), seven days, water 0.555, buffer 0.566
  ELISA ASSAY RESULTS (ug chitinase/g tissue): 0.555 ug chitinase/g tissue
[2]; line Nco-17 (2001/NcoChit), seven days, water —, buffer —
  ELISA ASSAY RESULTS (ug chitinase/g tissue): —
[2]; line Sal-2 (2001/SalChit), seven days, water —, buffer —
  ELISA ASSAY RESULTS (ug chitinase/g tissue): —
[2]; line Sal-3 (2001/SalChit), seven days, water —, buffer —
  ELISA ASSAY RESULTS (ug chitinase/g tissue): —
[2]; line Sal-4 (2001/SalChit), seven days, water —, buffer —
  ELISA ASSAY RESULTS (ug chitinase/g tissue): 0.047 ug chitinase/g tissue
[2]; line Sal-5 (2001/SalChit), seven days, water —, buffer —
  ELISA ASSAY RESULTS (ug chitinase/g tissue): —
[2]; line Sal-7 (2001/SalChit), seven days, water —, buffer —
  ELISA ASSAY RESULTS (ug chitinase/g tissue): —
[2]; line Sal-8 (2001/SalChit), seven days, water —, buffer —
  ELISA ASSAY RESULTS (ug chitinase/g tissue): —
[2]; line Sal-9 (2001/SalChit), seven days, water —, buffer —
  ELISA ASSAY RESULTS (ug chitinase/g tissue): 1.052 ug chitinase/g tissue
[2]; line Sal-11 (2001/SalChit), seven days, water —, buffer —
  ELISA ASSAY RESULTS (ug chitinase/g tissue): —
[2]; line Sal-12 (2001/SalChit), seven days, water —, buffer —
  ELISA ASSAY RESULTS (ug chitinase/g tissue): —
[2]; line Sal-13 (2001/SalChit), seven days, water —, buffer —
  ELISA ASSAY RESULTS (ug chitinase/g tissue): —
[2]; line Sal-14 (2001/SalChit), seven days, water —, buffer —
  ELISA ASSAY RESULTS (ug chitinase/g tissue): —
[2]; line Sal-15 (2001/SalChit), seven days, water —, buffer —
  ELISA ASSAY RESULTS (ug chitinase/g tissue): —

Source: US6632981B1, “DNA sequences encoding polypeptides having beta-1,3-glucanase activity” (Novartis Finance Corporation, priority 1988, dated 2003)
